Results on 36 compounds are retold here after a melting point compilation (Tetko et al.; mined from patent text by program, amines drawn as free bases though some values may be those of a salt).

Each structure is given as a SMILES string.

Compound `CCOC(=O)COc1ccc(C(=O)Nc2cccc(F)c2Sc2ccccc2-c2nnn[nH]2)cc1` had a melting point of 208 to 209 °C.

Compound `NC(=O)C1=CC=CN(CCc2ccc(Cl)s2)C1Oc1ccc(F)cc1` (stereo unspecified) came in with a melting point of 78 to 80 °C.

`CNC(=O)N(O)Cc1cccc(Nc2ccccc2C(=O)OC)c1C` displayed a melting point of 173 to 175 °C. As for `O=C(C=Cc1ccccc1)c1c(Cl)cccc1Cl`, the figure is 98.2 to 99.2 °C; as for `O=C(Cn1ccnc1)N1CCC(Oc2c(F)c(F)c(F)c(F)c2F)CC1`, 95 to 96 °C; as for `O=C1CC=C(c2ccccc2F)c2cc(Cl)ccc2N1`, 214 to 215 °C. `COc1ccc2cc(CC(C(C)=O)C(=O)OC(C)(C)C)ccc2c1` (stereo unspecified) displayed a melting point of 63.6 °C.

On to `Cc1c(Cc2cccc(C(F)(F)F)c2)sc2c(-c3cc(F)cc(C(=O)NCC(N)=O)c3)cccc12`, for which the melting point was in the range of 46 to 47 °C.

The compound `O=C1CC(/C=C/c2ccccc2)Nc2ccccc2N1Cc1ccccc1` (stereo unspecified) displayed a melting point of 186 to 187 °C.

As to `N#Cc1ccc(Oc2ccc(N)c(CN)c2)cc1`, the melting point was 80 to 82 °C.

`O=C(O)COCc1ccc(C=CC(=O)N2CCc3c([nH]c4ccccc34)C2c2ccc3c(c2)OCO3)cc1` (stereo unspecified) registered a melting point of 162 to 163 °C. Consider `CC(=O)Nc1ccc(Oc2ccc(S(C)(=O)=O)cc2C)cc1`, for which the melting point was determined as 169 °C.

`CCCc1c(C(O)C(C)C)c2ccc(C#N)cc2n1Cc1ccccc1Cl` (stereo unspecified) yielded a melting point of 126 to 127 °C. The result for `Cc1cc2c(cc1C)[C@@H](O)[C@H](CN1CCC3(CC1)C(=O)NCN3c1ccccc1)CC2` (relative stereo) reads 232 to 233 °C; that for `CN(C(=O)Nc1ccc(OC(F)(F)F)cc1)c1nc(OCC(F)(F)F)cc(OCC(F)(F)F)n1`, 123 to 125 °C. `COC(=O)c1ccc(CO)nc1C1=NC(C)(C(C)C)C(=O)N1` (stereo unspecified) had a melting point of 115 to 118 °C. In turn, `COC(=O)C(O)c1ccc([N+](=O)[O-])cc1` (stereo unspecified) registered a melting point of 56 to 58 °C. As for `CC(=O)c1cnc2c(n1)CCCC2`, the melting point was 42 to 45 °C. On to `CN(C)c1ccc(-c2cc(F)c(F)cc2-c2ccc(S(C)(=O)=O)cc2)cc1Cl`, for which the melting point lay within 129 to 130 °C. Compound `N#Cc1ccc(-c2ccc(OCCN(O)C=O)cc2)cc1` came in with a melting point of 142 to 145 °C. In turn, `CNC(=O)C(O)C1=CC2(CCCC2)c2ccccc21` (stereo unspecified) displayed a melting point of 136 to 138 °C. As for `CCCCc1cc(C(=O)O)ccc1C(N)C(=O)O` (stereo unspecified), the figure is 227 °C.

`O=C(Nc1c[nH]nc1C(=O)NCCO)c1ccccn1` returned a melting point of 155 to 156 °C.

In turn, `COc1cccc(C(CC(=O)O)SC)c1` (stereo unspecified) came in with a melting point of 61 to 63 °C.

The compound `CN(C(=O)CN(C(=O)CN1C(=O)c2ccccc2C1=O)c1ccccc1Cl)c1ccccc1` registered a melting point of 168 °C. Compound `O=C1CCC(O)(c2nc3ccccc3s2)CC1` displayed a melting point of 134 °C. On to `COC(=O)c1c(C)[nH]c(-c2ncccn2)c1C(=O)OC`, for which the melting point fell in the range of 140 to 146 °C. In turn, `COc1ccc(-n2nc(C)c(CC(=O)O)c2C)cc1` registered a melting point of 154 to 155 °C. As for `Cc1ccc(C)c(CN2CCN(C)CC(NC(=O)c3n[nH]c4ccccc34)C2)c1` (stereo unspecified), the melting point fell in the range of 168 to 170 °C. Turning to `COC(=O)N1OCC(=Cc2cc(C(C)(C)C)c(O)c(C(C)(C)C)c2)C1=O`, the melting point fell in the range of 191 to 192 °C.

With `OCCCCCCOc1ccc2ccccc2c1`, the melting point is 53 to 56 °C. As for `CCN(CC)C(=O)c1cccc(C=O)c1`, the melting point fell in the range of 115 to 119 °C. Take `COc1ccc(F)c2c1CCC(C=O)C2=O` (stereo unspecified): the melting point was 66 to 68 °C.

With `CC(C)(O)Cn1c(CO)nc2c(N)nc3cc(-c4cccc(C(=O)N5CCOCC5)c4)cnc3c21`, the melting point was in the range of 153 to 155 °C.

`Cn1c(-c2ccccc2)nc2nc(-c3ccc(Cl)cc3)nn2c1=S` gave a melting point of 267 to 270 °C.

Compound `CSc1cc2c(cc1C(F)(F)F)N(C(=O)Nc1cccc(C(=O)NCCN3CCCC3)c1)CC2` yielded a melting point of 91 to 93 °C.

The melting point is the temperature of the solid-liquid transition.
